Measured values published in patent US8431593B2, “Heteroaryl amide derivatives” (H. Lundbeck A/S, priority 2006, dated 2013).
pIC50: −log10 of the molar value.

The compounds below were run against T1, P2X7 receptor (Homo sapiens, UniProt Q99572) (assay: P2X7 calcium mobilization assay, high throughput, antagonist activity (Example 4A)). Details: not given.
T1 construct: host or cells: SH-SY5Y
T1 sequence (Q99572 1-595): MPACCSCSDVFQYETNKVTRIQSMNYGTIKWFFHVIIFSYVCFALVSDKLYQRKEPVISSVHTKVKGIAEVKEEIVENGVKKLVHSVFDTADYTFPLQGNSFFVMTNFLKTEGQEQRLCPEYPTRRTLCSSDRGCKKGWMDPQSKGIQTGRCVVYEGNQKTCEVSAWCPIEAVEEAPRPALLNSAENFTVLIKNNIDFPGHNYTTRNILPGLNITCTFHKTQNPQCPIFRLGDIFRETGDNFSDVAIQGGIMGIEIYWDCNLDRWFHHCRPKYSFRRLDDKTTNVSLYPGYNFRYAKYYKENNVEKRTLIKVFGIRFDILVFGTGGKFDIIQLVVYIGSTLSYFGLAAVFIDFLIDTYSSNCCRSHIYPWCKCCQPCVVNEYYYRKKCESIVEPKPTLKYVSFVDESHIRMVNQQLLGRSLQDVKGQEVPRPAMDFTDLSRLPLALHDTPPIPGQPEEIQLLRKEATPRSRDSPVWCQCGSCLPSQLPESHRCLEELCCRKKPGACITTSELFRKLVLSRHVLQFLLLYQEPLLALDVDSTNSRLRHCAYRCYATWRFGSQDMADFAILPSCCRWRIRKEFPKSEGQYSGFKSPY
Assay type: cell-based
In short: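 Antagonism was measured as calcium fluorescence (FLIPR Tetra) in cells seeded one day earlier at 100,000/well, loaded with dye for 1 h and exposed to compound for 1 h at room temperature before agonist. Peak RFU, minus the no-agonist background, was referenced to the mean of the agonist wells.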
O=C(NCC1CCCCC1)c1cccc2nc(CCl)cn12 [Compound 142, 2-(chloromethyl)-N-(cyclohexylmethyl)imi-dazo[1,2-a]pyridine-5-carboxamide] was tested, and the pIC50 was greater than 5.70.

Same assay, conditions: 50% decrease in the fluorescence response of cells exposed to 80 μM 2′(3′)-O-(4-benzoyl-benzoyl)adenosine 5′-triphosphate; Example 4A; read-out: IC50
CC(C)[C@@H]1CN(C(=O)c2cn3c(C(=O)NCC45CC6CC(CC(C6)C4)C5)cccc3n2)CCN1 [Compound 614, N-(adamantan-1-ylmethyl)-2-{[(3R)-3-isopropylpiperazin-1-yl]carbonyl}imidazo[1,2-a]pyridine-5-carboxamide] showed a pIC50 greater than 5.70.
In the case of CN(C(=O)c1cn2c(C(=O)NCC34CC5CC(CC(C5)C3)C4)cccc2n1)C1CCCNC1 (stereo not shown) [Compound 605, 5-N-(adamantan-1-ylmethyl)-2-N-methyl-2-N-piperidin-3-ylimidazo[1,2-a]pyridine-2,5-dicarboxamide], the pIC50 was greater than 5.70.
CC1(C)[C@@H]2CC[C@@H](CNC(=O)c3cccc4nc(CC(=O)N5CCCC(N)C5)cn34)[C@H]1C2 (stereo partly drawn) [Compound 581, 2-[2-(3-aminopiperidin-1-yl)-2-oxoethyl]-N-{[(1R,2R,5R)-6,6-dimethylbicyclo[3.1.1]hept-2-yl]methyl}imidazo[1,2-a]pyridine-5-carboxamide] showed a pIC50 greater than 5.70.
CCN(Cc1cn2c(C(=O)NCC34CC5CC(CC(C5)C3)C4)cccc2n1)C(=O)C(=O)O [Compound 546, [({5-[(adamantan-1-ylmethyl)carbamoyl]imidazo[1,2-a]pyridin-2-yl}methyl)(ethyl)amino] (oxo)acetic acid] showed a pIC50 greater than 5.70.
Work on CCCCN(CC)C(=O)c1cn2c(C(=O)NC[C@@H]3CC[C@H]4C[C@@H]3C4(C)C)cccc2n1 [Compound 475, 2-N-butyl-5-N-{[(1S,2R,5S)-6,6-dimethylbicyclo[3.1.1]hept-2-yl]methyl}-2-N-ethylimidazo[1,2-a]pyridine-2,5-dicarboxamide] yielded a pIC50 greater than 5.70.

Same assay, conditions: 50% decrease in the fluorescence response of cells exposed to 80 μM of 2′(3′)-O-(4-benzoyl-benzoyl)adenosine 5′-triphosphate; Example 4A; read-out: IC50
Compound CCN1CCCC1CNC(=O)c1cn2c(C(=O)NCC34CC5CC(CC(C5)C3)C4)cccc2n1 (stereo not shown) [Compound 643, 5-N-(adamantan-1-ylmethyl)-2-N-[(1-ethylpyrrolidin-2-yl)methyl]imidazo[1,2-a]pyridine-2,5-dicarboxamide] has a pIC50 greater than 5.70.
With COCCCN(C(=O)c1cn2c(C(=O)NCC34CC5CC(CC(C5)C3)C4)cccc2n1)C1CCNCC1 [Compound 619, 5-N-(adamantan-1-ylmethyl)-2-N-(3-methoxypropyl)-2-N-piperidin-4-ylimidazo[1,2-a]pyridine-2,5-dicarboxamide] the pIC50 was greater than 5.70.
Compound CC(C)NCCSCc1cn2c(C(=O)NCC34CC5CC(CC(C5)C3)C4)cccc2n1 [Compound 757, N-(adamantan-1-ylmethyl)-2-({[2-(isopropylamino)ethyl]thio}methyl) imidazo[1,2-a] pyridine-5-carboxamide] has a pIC50 greater than 5.70.
For Cc1ccc(C(CNC(=O)c2cccc3nc(CN4CC[C@@H](N)C4)cn23)CC(C)C)cc1 (stereo partly shown) [Compound 760, 2-[(3-aminopyrrolidin-1-yl)methyl]-N-[4-methyl-2-(4-methylphenyl)pentyl] imidazo[1,2-a] pyridine-5-carboxamide], the pIC50 was greater than 5.70.
For CN(C)CCCN(C(=O)c1cn2c(C(=O)NCC34CC5CC(CC(C5)C3)C4)cccc2n1)C1CCNCC1(C)C (stereo not shown) [Compound 621, 5-N-(adamantan-1-ylmethyl)-2-N-[3-(dimethylamino)propyl]-2-N-(3,3-dimethylpiperidin-4-yl)imidazo[1,2-a]pyridine-2,5-dicarboxamide], the pIC50 was greater than 5.70.
Work on CC(C#N)c1cn2c(C(=O)NCC34CC5CC(CC(C5)C3)C4)cccc2n1 (stereo not shown) [Compound 761, N-(adamantan-1-ylmethyl)-2-(1-cyanoethyl)imidazo [1,2-a]pyridine-5-carboxamide] yielded a pIC50 greater than 5.70.

Same assay, conditions: 50% decrease in the fluorescence response of cells exposed to 80 μM of 2′(3′)-O-(4-benzoyl-benzoyl)adenosine 5′-triphosphate; determined as in Example 4A; read-out: IC50
CCOC(=O)C(Cc1cccc(Cl)c1)c1cn2c(C(=O)NCC34CC5CC(CC(C5)C3)C4)cccc2n1 (stereo not shown) [Compound 841, ethyl 2-{5-[(adamantan-1-ylmethyl)carbamoyl]imidazo[1,2-a]pyridin-2-yl}-3-(3-chlorophenyl) propanoate] showed a pIC50 greater than 5.70.
With O=C(NCC1(c2ccc(F)cc2)CCCCC1)c1cccc2nc(CC(Cc3ccccc3)C(=O)O)cn12 (stereo not shown) [Compound 1012, 2-benzyl-3-[5-({[1-(4-fluorophenyl)cyclohexyl]methyl}carbamoyl)imidazo[1,2-a]pyridin-2-yl]propanoic acid] the pIC50 was greater than 5.70.

Same assay, conditions: P2X7 calcium mobilization, Example 4A; 50% decrease in the fluorescence response of cells exposed to 80 μM of (2′(3′)-O-(4-benzoyl-benzoyl)adenosine 5′-triphosephate); read-out: IC50
CC(C)CC(CNC(=O)c1cccc2nc(C(C)N3CCC3)cn12)c1ccc(Cl)cc1 (stereo not shown) [Compound 1033, 2-(1-azetidin-1-ylethyl)-N-[2-(4-chlorophenyl)-4-methylpentyl] imidazo[1,2-a] pyridine-5-carboxamide] was tested, and the pIC50 was greater than 5.70.

Same assay, conditions: SH-SY5Y cells; 50% decrease in fluorescence response to 80 μM BzATP; read-out: IC50
For CN(CCC(C)(C)O)C(=O)Cc1cn2c(C(=O)NCC34CC5CC(CC(C5)C3)C4)cccc2n1 [Compound 58, N-(adamantan-1-ylmethyl)-2-{2-[(3-hydroxy-3-methyl-butyl)(methyl)amino]-2-oxoethyl}imidazo[1,2-a]pyridine-5-carboxamide], the pIC50 was greater than 5.70.
With C[C@@H]1CN(C(=O)Cc2cn3c(C(=O)NCC45CC6CC(CC(C6)C4)C5)cccc3n2)CCN1 [Compound 114, N-(adamantan-1-ylmethyl)-2-{2-[(3R)-3-methylpiperazin-1-yl]-2-oxoethyl}imidazo[1,2-a]pyridine-5-carboxamide] the pIC50 was greater than 5.70.
For CN(C)CCN(C)C(=O)c1cn2c(C(=O)NCC34CC5CC(CC(C5)C3)C4)cccc2n1 [Compound 91, 5-N-(adamantan-1-ylmethyl)--[2-(dimethylamino)ethyl]-- methylimidazo[1,2-a]pyridine-2,5-dicarboxamide], the pIC50 was greater than 5.70.
CCNC(=O)Cc1cn2c(C(=O)NCC34CC5CC(CC(C5)C3)C4)cccc2n1 [Compound 17, N-(adamantan-1-ylmethyl)-2-[2-(ethylamino)-2-oxoethyl]imidazo[1,2-a]pyridine-5-carboxamide] showed a pIC50 greater than 5.70.
O=C(NCC12CC3CC(CC(C3)C1)C2)c1cccc2nc(CC(=O)N3CCCCC3)cn12 [Compound 181, N-(adamantan-1-ylmethyl)-2-(2-oxo-2-piperidin-1-ylethyl)imidazo[1,2-a]pyridine-5-carboxamide] was tested, and the pIC50 was greater than 5.70.
In the case of CC(C)(C)CNC(=O)Cc1cn2c(C(=O)NCC34CC5CC(CC(C5)C3)C4)cccc2n1 [Compound 154, N-(adamantan-1-ylmethyl)-2-{2-[(2,2-dimethylpropyl)amino]-2-oxoethyl}imidazo[1,2-a]pyridine-5-carboxamide], the pIC50 was greater than 5.70.
Work on O=C(NCCCO)c1cn2c(C(=O)NCC34CC5CC(CC(C5)C3)C4)cccc2n1 [Compound 80, 5-N-(adamantan-1-ylmethyl)--(3-hydroxy-propyl)imidazo[1,2-a]pyridine-2,5-dicarboxamide] yielded a pIC50 greater than 5.70.
COCCN(C)C(=O)CNC(=O)c1cn2c(C(=O)NCC34CC5CC(CC(C5)C3)C4)cccc2n1 [Compound 75, 5-N-(adamantan-1-ylmethyl)--{2-[(2-methoxy-ethyl)(methyl)amino]-2-oxoethyl}imidazo[1,2-a]pyridine-2,5-dicarboxamide] was tested, and the pIC50 was greater than 5.70.
Compound COC[C@H]1CCCN1C(=O)Cc1cn2c(C(=O)NCC34CC5CC(CC(C5)C3)C4)cccc2n1 [Compound 172, N-(adamantan-1-ylmethyl)-2-{2-[(2R)-2-(methoxymethyl)pyrrolidin-1-yl]-2-oxoethyl}imidazo[1,2-a]pyridine-5-carboxamide] has a pIC50 greater than 5.70.

Same assay, conditions: fluorescence response of cells exposed to 80 μM 2′(3′)-O-(4-benzoyl-benzoyl)adenosine 5′-triphosphate; Example 4A; read-out: IC50
In the case of CC(C)(C)NCCOC(=O)c1cn2c(NC(=O)CC34CC5CC(CC(C5)C3)C4)cccc2n1 [Compound 411, 2-(tert-butylamino)ethyl 5-[(adamantan-1-ylacetyl)amino] imidazo [1,2-a]pyridine-2-carboxylate], the pIC50 was greater than 5.70.
C[C@@H]1CNCCN1C(=O)c1cn2c(C(=O)NC[C@@H]3CC[C@H]4C[C@@H]3C4(C)C)cccc2n1 [Compound 305, N-{[(1S,2R,5S)-6,6-dimethylbicyclo[3.1.1]hept-2-yl]methyl}-2-{[(2R)-2-methylpiperazin-1-yl]carbonyl}imidazo[1,2-a]pyridine-5-carboxamide] was tested, and the pIC50 was greater than 5.70.
CN(C(=O)c1cn2c(NC(=O)CC34CC5CC(CC(C5)C3)C4)cccc2n1)C1CCOC1 (stereo not shown) [Compound 393, 5-[(adamantan-1-ylacetyl)amino]-N-methyl-N-(tetrahydrofuran-3-yl)imidazo[1,2-a]pyridine-2-carboxamide] was tested, and the pIC50 was greater than 5.70.
In the case of CCCCN(CC)C(=O)c1cn2c(NC(=O)CC34CC5CC(CC(C5)C3)C4)cccc2n1 [Compound 373, 5-[(adamantan-1-ylacetyl)amino]-N-butyl-N-ethylimidazo[1,2-a]pyridine-2-carboxamide], the pIC50 was greater than 5.70.
